According to US4537924A, “Quadratic acid amide derivatives, their use as stabilizers, and synthetic resins treated therewith” (Chemische Werke Huels, AG, priority 1982, dated 1985):
≈ marks a conversion by molar mass, not a printed value. Where two headings read alike, the source gives them in different places.

What was measured:
[1] = Solubility of pure compound in water; assay type: physicochemical
Text: (§1) The solubility values in water and dilute acetic acid (Tables 2 and 3), as well as the extraction values (Tables 4 and 7) confirm the low migrating tendency of the compounds according to the present invention.

[2] = Light exposure test (buckling test) with stabilizers in polyamide 12
[3] = Solubility of pure compound in 10% acetic acid; assay type: physicochemical; details: 22° C.; for solubility: 10% acetic acid
Text: as §1

[4] = Extraction of stabilizers from polyamide 12 with boiling organic solvents; assay type: physicochemical; details: 0.25% by weight stabilizer
Text: (a) Polyamide 12 (Number Average Mol. Wt. 30,000: Producer: Chemische Werke Hus AG, D-4370 Marl)
In a pug mill, polyamide 12 granules were combined with quadratic acid bisamides, and the resultant mixture was homogenized in a twin screw extruder. The granulated material obtained in this way was then molded into panels having a thickness of 1 mm, and chips of 30×10 mm were then cut therefrom.
as §1

[5] = Volatility of pure compound by thermogravimetric determination; assay type: physicochemical; details: heating-up rate 10° C./min; for Volatility: temperature at weight drop of 2%: weight drop 2%; for Volatility: temperature at weight drop of 50%: weight drop 50%; for Volatility: temperature at weight drop of 80%: weight drop 80%
Protocol: To test volatility, the quadratic acid bisamides or the synthetic resins treated therewith were subjected to thermogravimetric determination (cf. Tables 1 and 6). The heating-up rate was 10° C./min. A DuPont 950 Thermogravimetric Analyzer was applied.

[6] = Volatility (sublimation) of stabilizers from polyether esters; assay type: physicochemical; details: from polyether ester; 195° C. and 0.1 mbar; 0.5% by weight
[7] = Light exposure test (buckling test) with stabilizers in polypropylene
[8] = Extraction of stabilizers from polyether esters with boiling organic solvents; assay type: physicochemical; details: from polyether ester
Text: (b) Polyether Esters (Number Average Mol. Wt. 25,000)
Into a polyether ester melt based on terephthalic acid, 1,4-butanediol, and polytetrahydrofuran, 0.5% by weight of the respective quadratic acid amide was introduced. After processing into granules, the latter were used to make press-molded panels of a thickness of 1 mm, from which chips were cut of 30×10 mm.
as §1

[9] = with costabilizer mixture (benzotriazole, hexamethylenediamine phenol, phosphite; 0.25% each), 0.25% by wt. stabilizer (for salts: refers to the bisamide)
[10] = without costabilizer, 0.25% by wt. stabilizer (for salts: refers to the bisamide on which the salt is based)

Row | Stabilizing effect in polyamide 12, light exposure to break [2, 9] | Stabilizing effect in polyamide 12, light exposure to break [2, 10] | SMILES | solubility ([1]; 22° C.) | solubility ([1]; 100° C.) | also measured
1 |  |  | CC(C)CN(c1c([O-])c(=[N+](CC(C)C)C2CC(C)(C)NC(C)(C)C2)c1=O)C1CC(C)(C)NC(C)(C)C1 [Example 4, 1,3-Bis[N-isobutyl-N-(2,2,6,6-tetramethyl-4-piperidyl)amino]cyclobutenediylium-2,4-diolate] | < 100 µg/mL | 700 µg/mL (≈ 1390 µM) | 
2 | 1,076 h | 790 h | CC1(C)CC(N=c2c(O)c(NC3CC(C)(C)NC(C)(C)C3)c2=O)CC(C)(C)N1 [Example 1, 1,3-Bis[2,2,6,6-tetramethyl-4-piperidylamino]cyclobutenediylium-2,4-diolate] | < 20 µg/mL | 150 µg/mL (≈ 384 µM) | 
3 | 1,121 h | 720 h | CC1(C)CC(N=c2c(O)c(NC3CC(C)(C)NC(C)(C)C3)c2=O)CC(C)(C)N1 [Example 1.5, 1,3-bis[2,2,6,6-tetramethyl-4-piperidylamino]cyclobutenediylium-2,4-diolate] |  |  | Solubility of pure compound in 10% acetic acid [3]: 0.9 g/100 g 10% HAc
4 | 473 h | 432 h | C[C@@H]1CN(c2c([O-])c(=[N+]3C[C@@H](C)O[C@@H](C)C3)c2=O)C[C@H](C)O1 [E, 1,3-Bis(cis-2,6-dimethylmorpholino)cyclobutenediylium-2,4-diolate, reference compound] |  |  | 
5 |  |  | CCCCCCCCN(c1c([O-])c(=[N+](CCCCCCCC)C2CC(C)(C)NC(C)(C)C2)c1=O)C1CC(C)(C)NC(C)(C)C1 [Example 6, 1,3-Bis[N-n-octyl-N-(2,2,6,6-tetramethyl-4-piperidyl)amino]cyclobutenediylium-2,4-diolate] | < 100 µg/mL | 200 µg/mL (≈ 325 µM) | 
6 | 511 h | 460 h | CCN(CC)c1c([O-])c(=[N+](CC)CC)c1=O [C, 1,3-Bis(diethylamino)cyclobutenediylium-2,4-diolate, reference compound] |  |  | 
7 |  |  | CC(CO)N=c1c(O)c(NC(C)CO)c1=O (stereo not drawn) [F, 1,3-Bis[(2-hydroxy-1-methylethyl)amino]cyclobutenediylium-2,4-diolate, reference compound] |  |  | solubility [3]: 222000 µg/mL (≈ 973000 µM)
8 | 1,120 h | 780 h | CC1(C)CC(N=c2c(O)c(NC3CC(C)(C)NC(C)(C)C3)c2=O)CC(C)(C)N1 [Example 1.2, 1,3-bis[2,2,6,6-tetramethyl-4-piperidylamino]cyclobutenediylium-2,4-diolate] |  |  | Solubility of pure compound in 10% acetic acid [3]: 2.4 g/100 g 10% HAc
9 |  |  | CC1(C)CC(OC(=O)CCCCCCCCC(=O)OC2CC(C)(C)NC(C)(C)C2)CC(C)(C)N1 [Comparative Example A, sebacic acid di-4-hydroxy-2,2,6,6-tetramethylpiperidine ester] |  |  | Degree of extraction after 8 hour treatment ([4]; boiling chloroform): 69.9 % of Maximally Extractable Amo; Degree of extraction after 8 hour treatment ([4]; boiling methanol): 68.7 % of Maximally Extractable Amo; Volatility: temperature at weight drop of 2% [5]: 220 °C; Volatility: temperature at weight drop of 50% [5]: 285 °C; Volatility: temperature at weight drop of 80% [5]: 300 °C; Degree of sublimation after 24-hour treatment [6]: 88 % of Maximally Sublimable Quan; Stabilizing effect in polypropylene, light exposure to break ([7]; 0.2% by wt. stabilizer): 277 h; solubility [3]: 402000 µg/mL (≈ 836000 µM); Degree of extraction after 8-hour treatment ([8]; methanol (65° C.)): 60 % of Maximally Extractable Qua; Degree of extraction after 8-hour treatment ([8]; toluene (110° C.)): 53 % of Maximally Extractable Qua
10 |  |  | CC1(C)CC(N=c2c(O)c(NC3CC(C)(C)NC(C)(C)C3)c2=O)CC(C)(C)N1 [Example 1.4, 1,3-bis[2,2,6,6-tetramethyl-4-piperidylamino]cyclobutenediylium-2,4-diolate] |  |  | Solubility of pure compound in 10% acetic acid [3]: < 0.1 g/100 g 10% HAc
11 |  |  | CC1(C)CC2(CC(C)(C)N1)OC1(CCCCCCCCCCC1)NC2=O [B, 2,2,4,4-tetramethyl-3,20-diaza-7-oxa-21-oxodispiro[5,1,11,2]heneicosane] |  |  | Degree of extraction after 8 hour treatment ([4]; boiling chloroform): 97.2 % of Maximally Extractable Amo; Degree of extraction after 8 hour treatment ([4]; boiling methanol): 83.1 % of Maximally Extractable Amo; Volatility: temperature at weight drop of 2% [5]: 200 °C; Volatility: temperature at weight drop of 50% [5]: 280 °C; Volatility: temperature at weight drop of 80% [5]: 300 °C
12 |  |  | CC1(C)CC(N=c2c(O)c(NC3CC(C)(C)NC(C)(C)C3)c2=O)CC(C)(C)N1 [Example 1.1, 1,3-bis[2,2,6,6-tetramethyl-4-piperidylamino]cyclobutenediylium-2,4-diolate] |  |  | Solubility of pure compound in 10% acetic acid [3]: 4.6 g/100 g 10% HAc
13 |  |  | CCCCN(c1c([O-])c(=[N+](CCCC)C2CC(C)(C)NC(C)(C)C2)c1=O)C1CC(C)(C)NC(C)(C)C1 [Example 3, 1,3-Bis[N-n-butyl-N-(2,2,6,6-tetramethyl-4-piperidyl)amino]cyclobutenediylium-2,4-diolate] | < 100 µg/mL | 800 µg/mL (≈ 1590 µM) | 
14 | 976 h | 683 h | CC1(C)CC(N=c2c(O)c(NC3CC(C)(C)NC(C)(C)C3)c2=O)CC(C)(C)N1 [Example 1.3, 1,3-bis[2,2,6,6-tetramethyl-4-piperidylamino]cyclobutenediylium-2,4-diolate] |  |  | Solubility of pure compound in 10% acetic acid [3]: 5.0 g/100 g 10% HAc
15 | 1,135 h | 820 h | CC1(C)CC(OCCCN=c2c(O)c(NCCCOC3CC(C)(C)NC(C)(C)C3)c2=O)CC(C)(C)N1 [Example 9, 1,3-Bis[2,2,6,6-tetramethyl-4-piperidyloxypropylamino]cyclobutenediylium-2,4-diolate] | 2400 µg/mL (≈ 4740 µM) | 9500 µg/mL (≈ 18700 µM) | 
16 |  |  | CCCCCCN(c1c([O-])c(=[N+](CCCCCC)C2CC(C)(C)NC(C)(C)C2)c1=O)C1CC(C)(C)NC(C)(C)C1 [Example 5, 1,3-Bis[N-n-hexyl-(2,2,6,6-tetramethyl-4-piperidyl)amino]cyclobutenediylium-2,4-diolate] | < 100 µg/mL | 300 µg/mL (≈ 537 µM) | 
17 |  |  | CC1(C)CC(N(CCO)c2c([O-])c(=[N+](CCO)C3CC(C)(C)NC(C)(C)C3)c2=O)CC(C)(C)N1 [Example 7, 1,3-Bis[N-2-hydroxyethyl-N-(2,2,6,6-tetramethyl-4-piperidyl)amino]cyclobutenediylium-2,4-diolate] |  |  | Stabilizing effect in polypropylene, light exposure to break [7]: 375 h
18 | 619 h | 530 h | O=c1c(N2CCCCC2)c([O-])c1=[N+]1CCCCC1 [G, 1,3-Bispiperidinocyclobutenediylium-2,4-diolate, reference compound] |  |  | Stabilizing effect in polypropylene, light exposure to break ([7]; 0.2% by wt. stabilizer): 212 h
